Legend:
class I FBA [1] = settings: human muscle, concentrations as high as 1 mM
class I FBA [2] = molecular target: class I FBA (Oryctolagus cuniculus (Rabbit), UniProt P00883); test: Inhibition of class I FBA from rabbit muscle; type: biochemical; settings: concentrations as high as 1 mM
[3] = Calorimetric titration into MtFBA buffer with 200 μM ZnCl2 (no enzyme); type: binding; settings: 1 mM compound titrated into MtFBA buffer with 200 μM ZnCl2, 25° C.
Experimental: FIG. 5 provides data from the calorimetric titration of HCA. […] Top graphs represent raw heat data and bottom graphs are integrated heat peaks gained at 25° C.
Top graphs represent raw heat data and bottom graphs are integrated heat peaks gained at 25° C. from 25 injections of Regis 5 into 170 μL of 20 mM Tricine pH 8.0, 100 mM NaCl, and either (a) 700 μM MtFBA with 100 μM ZnCl2 or (b) 200 μM ZnCl2. Data sets were collected in duplicate, analyzed with NanoAnalyze™ software, and fit to an independent model concurrently with a bank constant model to adjust for a heat of dilution.

[4] = molecular target: class IIa FBA isolated from E. coli (Escherichia coli (strain K12), UniProt P0AB71); test: Inhibition of class IIa FBA from E. coli; type: biochemical; settings: 25 μM HCA
Experimental: Class II FBAs can be broken down into two families (a/b) whose distribution among bacterium is independent of Gram staining determined phylogenetic groups. In this illustration, a single concentration of HCA at 25 μM was tested for the inhibition of class IIa FBA isolated from E. coli and class IIb FBA originating from methicillin-resistant S. aureus (MRSA).
Error bars represent standard deviations from the average.

MtFBA [5] = molecular target: T1, MtFBA (Mycobacterium tuberculosis (strain ATCC 25618 / H37Rv), UniProt P9WQA3); test: MtFBA enzyme inhibition; type: biochemical; settings: for % Inhibition at 1 mM: 1 mM compound
MtFBA [6] = molecular target: T1, MtFBA; type: binding; settings: 25° C.

Sequence of class IIa FBA isolated from E. coli (P0AB71 whole entry, looked up): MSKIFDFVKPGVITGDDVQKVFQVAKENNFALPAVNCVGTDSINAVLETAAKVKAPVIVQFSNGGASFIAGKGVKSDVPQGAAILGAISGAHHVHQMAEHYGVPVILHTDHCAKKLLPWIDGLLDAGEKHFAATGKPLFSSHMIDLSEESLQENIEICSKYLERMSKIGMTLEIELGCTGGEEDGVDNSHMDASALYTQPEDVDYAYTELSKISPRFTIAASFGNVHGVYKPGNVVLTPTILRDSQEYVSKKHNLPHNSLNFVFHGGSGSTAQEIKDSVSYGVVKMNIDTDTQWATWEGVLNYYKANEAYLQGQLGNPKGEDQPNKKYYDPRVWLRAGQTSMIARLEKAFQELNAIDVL
Sequence of class I FBA (Oryctolagus cuniculus (Rabbit), UniProt P00883) (P00883 whole entry, looked up): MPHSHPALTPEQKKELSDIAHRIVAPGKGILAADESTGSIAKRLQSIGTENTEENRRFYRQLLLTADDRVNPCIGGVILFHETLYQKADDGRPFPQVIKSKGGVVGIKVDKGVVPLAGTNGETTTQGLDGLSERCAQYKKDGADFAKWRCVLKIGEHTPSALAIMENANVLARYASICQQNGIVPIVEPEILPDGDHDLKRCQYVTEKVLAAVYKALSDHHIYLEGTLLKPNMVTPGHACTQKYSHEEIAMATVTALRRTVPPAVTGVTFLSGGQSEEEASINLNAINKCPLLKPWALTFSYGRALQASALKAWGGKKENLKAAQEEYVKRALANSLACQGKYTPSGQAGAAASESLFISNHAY

## O=C(O)c1ccc2cccc(O)c2n1 [Compound 5]
Class I FBA [1]
  inhibition of class I FBA: no inhibitory affects
Class I FBA [2]
  inhibition of class I FBA: no inhibitory affects
[3]
  binding to buffer Zn(II): no appreciable binding
[4]
  % inhibition: 42.2±2.8%
MtFBA [5]; FIG. 6A inset, serial dilutions of compound
  IC50: 17 ± 2.1 µM
MtFBA [5]; SAR table
  IC50: 14 ± 2 µM
MtFBA [5]; read-out: % Inhibition at 1 mM
  inhibition at 1000 µM: 95 ± 4.1%
MtFBA [6]
  n (ITC stoichiometry): 0.94±0.14
MtFBA [6]; ITC
  ΔH: -28.73 ± 0.58 kJ/mol
  ΔS: 2.44±3.12 J mol^−1 K^−1
MtFBA [6]; ITC, 5 mM compound into 700 μM MtFBA, 20 mM Tricine pH 8.0, 100 mM NaCl, 100 μM ZnCl2, read-out: dissociation constant Kd
  Kd: 6.94 ± 0.97 µM

## O=C(O)c1ccc2cc(F)cc(O)c2n1 [Compound 6F-HCA, 6-fluoro-8-hydroxyquinoline-2-carboxylic acid]
MtFBA [5]; fluorine at position 6 versus HCA
  increase in potency toward the enzyme relative to HCA: 50%

## Nc1cccc2cccnc12 [Compound 18]
MtFBA [5]
  % Inhibition at 1 mM: 68 ± 2.2%
MtFBA [5]; SAR table
  IC50: 79 ± 10 µM

## Oc1cccc2cccnc12 [Compound 6]
MtFBA [5]
  % Inhibition at 1 mM: 54 ± 18%
MtFBA [5]; SAR table
  IC50: 300 ± 67 µM

## CS(=O)(=O)Nc1ccc2cccc(O)c2n1 [Compound 34]
MtFBA [5]
  % Inhibition at 1 mM: 12 ± 5.4%
MtFBA [5]; SAR table
  IC50: 570 ± 87 µM

Source: patent publication US9394254B2, “Antibiotic and anti-parasitic agents that modulate class II fructose 1,6-bisphosphate aldolase” (priority 2013, dated 2016)
